Entries after “also recorded” stand apart in the source; their conditions may differ.
Assays:
[1] = system: HaCaT cells; assay: H2O2-induced reactive oxygen species (ROS) in HaCaT cells (CellROX deep red); assay type: cell-based, human
Description: HaCaT cells were grown as described in example 23 and were seeded in 96-well plates (Nunc™ black with optical bottom, Thermo Fisher Scientific, Inc., Waltham, Mass.) with a density at 2×10^4 cells per well and 100 μl medium in each well, and grown overnight before treatments. Stock solutions of NRH and other test compounds were prepared and diluted to 2× of final treatment concentrations in DMEM medium in 96-well storage plate as indicated in the FIG. 11. HaCaT Cells were treated in triplicates by adding 100 μl of diluted solutions of test compounds (2×) to each well containing 100 μl medium already. Cells were incubated in the presence of test compounds for 3 hrs. At the end of 3 hr incubation, cells were washed once with 200 μl DPBS with Ca^++ and Mg^++ (Life Technologies) and then fed with 100 μl DMEM medium each well containing H2O2 at 250 μM (as a ROS (reactive oxygen species) inducer, Sigma). After 30 min incubation, cells were washed once with 200 μl DPBS with Ca^++ and Mg^++ and CellROX deep red reagent (2.5 mM stock solution, Life Technologies) was added to the medium to a final concentration of 5 μM. After 1 hr incubation at 37° C., 5% CO2, Cells were washed for 3 times with DPBS, fluorescence signal was read at Ex. 640 nm and Em. 665 nm in Biotek Synergy H4 microplate reader (BioTek, Winooski, Vt.). Untreated cells were served as controls (normalized to 1). All the treated samples were normalized to the untreated control.

[2] = Plasma hydrolysis of nicotinamide riboside analogs to NR (incubation with rat plasma, LC/MS/MS); assay type: in vitro ADME; details: 10 mM, incubated 30 min at 37° C.
Description: Compounds were diluted with rat plasma to a concentration of 10 millimolar (mM). Samples were incubated for 30 min at 37° C., taking 50 microL aliquots for analysis at 0 and 30 min. The aliquots were loaded onto a deep 96 well plate, then 350 microL of 0.1% (v:v) formic acid in acetonitrile was added to each well. The plate was covered and sealed to prevent evaporation, then it was placed on an orbital plate shaker set to 800-900 rps for 5-10 minutes. Next, the plate was centrifuged at around 3000 rpm for 5 min to provide a clear supernatant. For LC/MS/MS analysis, 200 microL of supernatant from each well was transferred onto a clean plate, which was subsequently capped and placed into an autosampler.
(§1) LCMS Conditions. For each well, a 10 microL sample was injected via autosampler onto a Chromolithe Performance, RP-18e (100×4.6 mm) column, and eluted with a binary gradient. Solvent A=0.1% formic acid, 0.1% N,N-dibutyl-N-methylamine (DBME) in 2 mM aqueous ammonium acetate (1:1:1000 v:v:v). Solvent B=0.1% formic acid in acetonitrile (1:1000 v:v). The solvent gradient was as follows: 0-0.22 min, 95:5 A:B; […], 95:5 A:B to 30:70 A:B (linear gradient); 5.05-6.05 min, 30:70 A:B; 6.05-6.60 min, 30:70 A:B to 95:5 A:B (linear gradient); 6.60-7.15 min, 95:5 A:B; stop elution at 7.15 min. Nicotinamide riboside eluted at approximately 1.7 min. A triple-quadrupole mass spectrometer was employed for peak identification. The identity of the analyte was confirmed by MS observation of a Q1 peak at m/z=255 (M)^+, and a Q3 peak at m/z=123.1 (M-C5H8O4)^+.
The results are shown in FIG. 3, with the release of free nicotinamide riboside measured using by HPLC-MS at 0, 30, and 60 minute time points (columns 5, 6, and 7 of table shown in FIG. 3). For each of NR esters in Table 3, except nicotinamide riboside tribenzoate, nicotinamide riboside was detected at the 30 minute time point.

[3] = system: C57BL/6 DIO mice; assay: NRH triacetate efficacy in DIO (Diet-Induced Obesity) mice; assay type: in vivo
Description: C57BL/6 DIO mice and lean controls were purchased from Taconic (Hudson, N.Y.). All mice were fed Purina 5001 chow ad libitum from weaning until 6 weeks of age, then DIO mice were fed a diet containing 60% fat, ad libitum. When the mice were 18 weeks old, dosing was begun. Mice were segregated into groups of 8, with group A receiving vehicle (1:1 (v:v) PEG400: water), group B receiving 100 mg/kg nicotinamide riboside hydride triacetate as a solution in vehicle, group C receiving 500 mg/kg nicotinamide riboside hydride triacetate as a solution in vehicle, and group D (chow-fed lean control mice) receiving vehicle. The mice were dosed once per day via oral gavage for six weeks. After three weeks of dosing, body weights, post-prandial blood glucose, and post-prandial blood insulin levels were measured using commercially available kits. After four weeks of dosing, fasted blood glucose and fasted blood insulin levels were measured. Nicotinamide riboside and NAD levels were measured after four weeks of dosing, using the same extraction and LCMS protocol as described in Example 21 with NAD giving an LC retention time=2.5 min, MS Q1 peak, m/z=664(M+H)+, Q3 peak, m/z=428 (M-Cl1H13N2O4). Statistical analysis was performed using one-way ANOVA, and Dunnett's post test.
Chow-fed mice were used as non-diabetic controls.

[4] = Gravimetric Vapor Sorption (GVS); assay type: physicochemical; details: 90% RH, 25° C.
Description: Gravimetric Vapor Sorption (GVS): Samples were analyzed using a VTI corporation (now part of TA Instruments) SGA-100 with Cahn microbalance equipped with quartz sample and reference pans. Samples were dried in the SGA-100 under dry nitrogen for 5 hours at 25° C. followed by a moisture absorption step ramp from 5% relative humidity (RH) to 95% or 90% RH followed by a desorption step ramp back to 5% or 10% RH (all steps at 25° C.). The samples were held at each % RH step for 4 hours.

[5] = Plasma/blood nicotinamide riboside levels in orally dosed mice (LCMS); assay type: in vivo; details: oral gavage 500 mg/kg in PBS; for plasma nicotinamide riboside levels: both 2 h and 6 h post-dose
Description: Compounds were suspended in phospho-buffered saline (PBS) solution at 125 mg/mL. Eight mice were dosed via oral gavage with study compound at 500 mg/kg, (20 mg compound in 160 microL of PBS for a 40 g mouse). Four mice were euthanized via CO2 asphyxiation at 2 h post-dose, then the remaining four were euthanized at 6 h post-dose, and blood was collected immediately following euthanasia via cardiac puncture, orbital bleed, or tail vein nick. Approximately 600 microL of blood was collected from each mouse. The blood samples were diluted with 5 volumes of 70% (1% sulfosalicylic acid/1 microM DTE/10 microM CD-38 inhibitor)/30% (37% 10 mM aqueous ammonium bicarbonate/63% acetonitrile). The mixture was vortexed, then centrifuged at 3000 rpm for 10 min at 4° C. to give a transparent supernatant. A 10 microL portion of the supernatant was analyzed by LCMS, using the conditions below.
as §1, with “injected” for “injected via autosampler”, “A:B;” for “A:B; stop”, “elution was stopped” for “elution”, “(M)+,” for “(M)^+,”
In the bar graph in FIG. 5, compounds are shown on the x-axis, and comparative LCMS signal is shown on the y-axis; with each compound dosed in mice at 500 mg study compound per 1000 g mouse as a solution or suspension in phospho-buffered saline solution (PBS) (A=blank control (PBS), B=nicotinic acid riboside hydride ethyl ester triacetate, C=Nicotinamide riboside hydride triisobutyrate, D=Nicotinamide riboside hydride tri-n-butyrate, E=Nicotinamide riboside hydride tripropionate, F=nicotinamide riboside hydride tribenzoate). As shown, samples were taken 2 hours and 6 hours post dose. Also as shown, samples were kept cold (4° C.) or at room temperature (approximately 23° C.) before analysis.

[6] = 100 and 500 mg/kg once per day orally, after four weeks of dosing
[7] = oral gavage once per day 100 or 500 mg/kg, post-prandial, after three weeks of dosing

OO [Example H2O2]
level of ROS ([1]; 250 μM H2O2, 30 min, normalized to untreated control): ~6 fold

OCCc1ccc(O)c(O)c1 [Hydroxyterosol]
H2O2-induced ROS ([1]; 3 hr pre-incubation then 250 μM H2O2, Hydroxyterosol 0.005%, niacinamide 4.5 mM, NRH several concentrations): reduced H2O2-induced ROS

CC(=O)OC[C@H]1O[C@@H](N2C=CCC(C(N)=O)=C2)[C@H](OC(C)=O)[C@@H]1OC(C)=O [NRH triacetate, (2R,3R,4R,5R)-2-(acetoxymethyl)-5-(3-carbamoylpyridin-1(4H)-yl)tetrahydrofuran-3,4-diyl diacetate]
conversion to free nicotinamide riboside [2]: converted to free nicotinamide riboside to a significant degree
blood NAD levels [3, 6]: rose in a dose-dependent manner; also recorded: rise in a NRH-triacetate dose-dependent manner
blood nicotinamide riboside levels [3, 6]: rose in a dose-dependent manner; also recorded: rise in a NRH-triacetate dose-dependent manner
blood glucose levels [3, 7]: reduced
blood insulin levels [3, 7]: reduced
GVS weight gain from the dried state [4]: greater than 12%

NC(=O)C1=CN([C@@H]2O[C@H](COC(=O)c3ccccc3)[C@@H](OC(=O)c3ccccc3)[C@H]2OC(=O)c2ccccc2)C=CC1 [NRH tribenzoate, (2R,3R,4R,5R)-2-((benzoyloxy)methyl)-5-(3-carbamoylpyridin-1(4H)-yl)tetrahydrofuran-3,4-diyl dibenzoate]
conversion to free nicotinamide riboside [2]: not significantly converted to free nicotinamide riboside
nicotinamide riboside level ([5]; 2 h post-dose): only a very modest increase

CCCC(=O)OC[C@H]1O[C@@H](N2C=CCC(C(N)=O)=C2)[C@H](OC(=O)CCC)[C@@H]1OC(=O)CCC [NRH tributyrate, (2R,3R,4R,5R)-2-((butyryloxy)methyl)-5-(3-carbamoylpyridin-1(4H)-yl)tetrahydrofuran-3,4-diyl dibutyrate]
conversion to free nicotinamide riboside [2]: converted to free nicotinamide riboside to a significant degree
plasma nicotinamide riboside levels [5]: raised plasma nicotinamide riboside levels substantially

CC(C)C(=O)OC[C@H]1O[C@@H](N2C=CCC(C(N)=O)=C2)[C@H](OC(=O)C(C)C)[C@@H]1OC(=O)C(C)C [NRH triisobutyrate, (2R,3R,4R,5R)-2-(3-carbamoylpyridin-1(4H)-yl)-5-((isobutyryloxy)methyl)-tetrahydrofuran-3,4-diyl bis(2-methylpropanoate)]
conversion to free nicotinamide riboside [2]: converted to free nicotinamide riboside to a significant degree
plasma nicotinamide riboside levels [5]: raised plasma nicotinamide riboside levels substantially

CCC(=O)OC[C@H]1O[C@@H](N2C=CCC(C(N)=O)=C2)[C@H](OC(=O)CC)[C@@H]1OC(=O)CC [NRH tripropionate, (2R,3R,4R,5R)-2-(3-carbamoylpyridin-1(4H)-yl)-5 ((propionyloxy)methyl) tetrahydrofuran-3,4-diyl dipropionate]
conversion to free nicotinamide riboside [2]: converted to free nicotinamide riboside to a significant degree
plasma nicotinamide riboside levels [5]: raised plasma nicotinamide riboside levels substantially

From patent US10485814B2, “Nicotinamide riboside analogs and pharmaceutical compositions and uses thereof” (GlaxoSmithKline Intellectual Property (No. 2) Limited, priority 2014, dated 2019)
